Data: paper PMC6025407, “Asperversins A and B, Two Novel Meroterpenoids with an Unusual 5/6/6/6 Ring from the Marine-Derived Fungus Aspergillus versicolor” (Marine Drugs, 2018)
In brackets after ≈: the same amount, converted by molar mass. Like-named read-outs stand apart in the source and are kept apart here.

Tests used:
Escherichia coli = experiment: Antimicrobial (printed 'antifungal') bioassay; type: cell-based
Description: (§1) The tested pathogenic fungi, Staphylococcus aureus (MRSA), methicillin-sensitive Staphylococcus aureus (MSSA), Escherichia coli and Pseudomonas aeruginosa, were provided by Tongji Hospital of Tongji Medical College of Huazhong University of Science and Technology. All samples dissolved in MeOH were tested for antifungal activity in vitro by mycelial growth inhibitory rate method, a Poison Food Technique.
(§2) Potato dextrose agar (PDA) medium was used as the medium for all test fungi.
(§3) The media (100 ml) incorporating test samples were inoculated at the center of agar discs of the test fungi (4 mm diameter). Three replicate plates for each fungus were incubated at 26 °C for all test fungi. Control plates containing media mixed with MeOH (1 ml) were in cluded. After incubation for 24–48 h, the mycelial growth of fungi (mm) in both treated (T) and control (C) Petri dishes was measured diametrically in three different directions (decussation method) until the fungal growth in the control dishes was almost complete. The percentage of growth inhibition ( I) was calculated using the […]
(§4) Table S2. Antifungal Effects of Compounds 1−8 (MIC, μg/ml). fungi MRSA MSSA E. coli P. aeruginosa

Pseudomonas aeruginosa = experiment: Antimicrobial (printed 'antifungal') bioassay; type: cell-based
Description: as §1, §2, §3, §4

[1] = tested on: methicillin-resistant Staphylococcus aureus (MRSA); experiment: Antimicrobial (printed 'antifungal') bioassay; type: cell-based
Description: as §1, §2, §3, §4

[2] = tested on: methicillin-sensitive Staphylococcus aureus (MSSA); experiment: Antimicrobial (printed 'antifungal') bioassay; type: cell-based
Description: as §1, §2, §3, §4

[3] = tested on: methicillin-resistant Staphylococcus aureus (MRSA); conditions: cited from earlier work
human recombinant AChE = human recombinant AChE (Homo sapiens, UniProt P22303); experiment: biochemical; conditions: for inhibition at 100 µM: AChE, read-out: Inhibitory Ratio at 100 μM; for IC50: read-out: IC50 Value against AChE
Sequence of human recombinant AChE (P22303 32-614): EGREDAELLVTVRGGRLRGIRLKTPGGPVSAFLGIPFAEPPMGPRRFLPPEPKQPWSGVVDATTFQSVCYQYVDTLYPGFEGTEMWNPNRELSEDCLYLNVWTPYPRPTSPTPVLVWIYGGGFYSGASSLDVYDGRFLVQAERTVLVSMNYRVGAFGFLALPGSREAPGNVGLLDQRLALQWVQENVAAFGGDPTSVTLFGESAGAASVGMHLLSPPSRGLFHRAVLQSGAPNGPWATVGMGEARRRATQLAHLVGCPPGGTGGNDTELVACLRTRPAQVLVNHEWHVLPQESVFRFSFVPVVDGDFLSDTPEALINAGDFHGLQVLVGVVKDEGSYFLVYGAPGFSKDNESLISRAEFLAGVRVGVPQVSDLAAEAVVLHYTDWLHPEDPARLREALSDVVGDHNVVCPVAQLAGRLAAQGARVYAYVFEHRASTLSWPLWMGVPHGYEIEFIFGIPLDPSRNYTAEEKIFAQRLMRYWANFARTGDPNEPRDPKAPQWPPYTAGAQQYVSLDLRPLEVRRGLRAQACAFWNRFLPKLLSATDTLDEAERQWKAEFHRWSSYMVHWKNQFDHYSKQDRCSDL
Description: Briefly, 20 µL AChE (0.05 U/mL) and 20 µL different concentrations of compounds (0.1 M phosphate buffer, pH 8.0) containing 0.1% Triton X-100) were pre-incubated at 37 °C for 30 min, then 160 µL of the assay solution which consisted of a 0.1 M phosphate buffer pH 8.0, with the addition of 600 µM 5,5’-dithio-bis (2-nitrobenzoic acid) and 550 µM acetylthiocholine iodide (ATCh) were added in the 96-well plates. The absorbance value at 425 nm was recorded for 15 min and enzyme activity was calculated from the slope of the obtained linear trend. The reaction rates were compared and the % inhibition due to the presence of tested inhibitors was calculated. Each concentration was analyzed in triplicate, and IC50 values were determined graphically from log concentration inhibition curves (Graphpad Prism 5, GraphPad Software Inc., San Diego, CA, USA).

in vitro = conditions: human, A549 cells
Description: Four human cancer cell lines (A549, MCF-7, HepG2, and HL-60 cells), together with one noncancerous cell line, the human bronchial epithelial cells Beas-2B, were used in the cytotoxic activity assay. […]
medium (HyClone, Logan, UT, USA), supplemented with 10% fetal bovine serum (HyClone) at 37 °C in a humidified atmosphere with 5% CO 2 . The cell survival assay was performed using the MTT method. Briefly, 100 μ L of a suspension of the adherent cells was seeded into each well of the 96 - well culture plates and allowed to adhere for 12 h before addition of the test compounds. The suspended cells were seeded at an initial density of 1 × 10^5 cells/mL immediately before the addition of the drug. Each tumor cell line was exposed for 48 h in triplicate to the test compounds at concentrations […]
positive controls. After incubation, culture supernatants were removed and exchanged with medium containing 0.5 mg/mL MTT. Then, the cells were incubated for 4 h at 37 °C in darkness , followed by the removal of the medium and adding 100 μ L dimethyl sulfoxide. The absorbance at 570 nm was detected and the data were expressed as the mean percentage of absorbance in treated vs. control cells.

Cytotoxic assay (MTT) = conditions: human
Description: (§5) Four human cancer cell lines (A549, MCF-7, HepG2, and HL-60 cells), together with one noncancerous cell line, the human bronchial epithelial cells Beas-2B, were used in the cytotoxic activity assay. All cells were cultured in DMEM or RPMI- 1640 medium (HyClone, Logan, UT, USA), supplemented with 10% fetal bovine serum (HyClone) at 37 °C in a humidified atmosphere with 5% CO 2 . The cell survival assay was performed using the MTT method. Briefly, 100 μ L of a suspension of the adherent cells was seeded into each well of the 96 - well culture plates and allowed to adhere for 12 h before addition of the test compounds. The suspended cells were seeded at an initial density of 1 × 10^5 cells/mL immediately before the addition of the drug. Each tumor cell line was exposed for 48 h in triplicate to the test compounds at concentrations of 0.0625 , 0.32, 1.6, 8, and 40 μ M, with DDP (cis - platin, Sigma) and paclitaxel as positive controls. After incubation, culture supernatants were removed and exchanged with medium containing 0.5 mg/mL MTT. Then, the cells were incubated for 4 h at 37 °C in darkness , followed by the removal of the medium and adding 100 μ L dimethyl sulfoxide. The absorbance at 570 nm was detected and the data were expressed as the mean percentage of absorbance in treated vs. control cells.

[4] = Cytotoxic assay (MTT), noncancerous cell line; conditions: human, Beas-2B bronchial epithelial cells (noncancerous)
Description: as §5

Compound | MIC (Escherichia coli) | MIC (Pseudomonas aeruginosa) | MIC [1] | MIC [2] | activity against MRSA (in words) [3] | inhibition at 100 µM (human recombinant AChE) | IC50 (human recombinant AChE) | IC50 at 48 h (in vitro) | IC50 at 48 h (Cytotoxic assay (MTT); HL-60 cells) | IC50 at 48 h (Cytotoxic assay (MTT); HepG2 cells) | IC50 at 48 h (Cytotoxic assay (MTT); MCF-7 cells) | IC50 at 48 h [4] | MIC (Escherichia coli; E. coli, read-out: MIC) | MIC (Pseudomonas aeruginosa; P. aeruginosa, read-out: MIC) | MIC ([1]; read-out: MIC) | MIC ([2]; read-out: MIC)
CN[C@H](CC(C)C)C(=O)N[C@H]1C(=O)N[C@@H](CC(N)=O)C(=O)N[C@H]2C(=O)N[C@H]3C(=O)N[C@H](C(=O)N[C@H](C(=O)O)c4cc(O)cc(O)c4-c4cc3ccc4O)[C@H](O)c3ccc(c(Cl)c3)Oc3cc2cc(c3O[C@@H]2O[C@H](CO)[C@@H](O)[C@H](O)[C@H]2O[C@H]2C[C@](C)(N)[C@H](O)[C@H](C)O2)Oc2ccc(cc2Cl)[C@H]1O [vancomycin, reference compound] | 0.5 mg/L (≈ 0.345 µM) | 0.8 mg/L (≈ 0.552 µM) | 1.2 mg/L (≈ 0.828 µM) | 0.5 mg/L (≈ 0.345 µM) | – | – | – | – | – | – | – | – | – | – | – | –
Apiroaspertrione A | – | – | – | – | effective activity | – | – | – | – | – | – | – | – | – | – | –
Cc1cc2c(c(=O)o1)C[C@@H]1[C@@]3(C)[C@@H](O)CC(=O)OC(C)(C)[C@@H]3[C@H](O)C[C@@]1(C)O2 [Compound 8, asperdemin] | – | – | – | – | – | 25.3% | > 40 µM | > 40 µM | > 40 µM | > 40 µM | > 40 µM | > 40 µM | > 100 mg/L | > 100 mg/L | > 100 mg/L | > 100 mg/L
CC(=O)OC1CC2(C)Oc3cc(C)oc(=O)c3CC2C2(C)C(O)CC(=O)OC(C)(C)C12 (stereo not drawn) [Compound 5, Asperversin E] | – | – | – | – | – | 48.7% | > 40 µM | > 40 µM | > 40 µM | > 40 µM | > 40 µM | > 40 µM | > 100 mg/L | > 100 mg/L | > 100 mg/L | > 100 mg/L
COC(=O)C[C@@H]1OC(C)(C)[C@@H]2[C@H](OC(C)=O)C[C@@]3(C)Oc4cc(C)oc(=O)c4C[C@@H]3[C@@]12C [Compound 1, Asperversin A] | – | – | – | – | – | 35.7% | > 40 µM | > 40 µM | > 40 µM | > 40 µM | > 40 µM | > 40 µM | > 100 mg/L | > 100 mg/L | > 100 mg/L | > 100 mg/L
CC(=O)OC1CC2(C)Oc3cc(C)oc(=O)c3CC2C2(C)C=CC(=O)C(C)(C)C12 (stereo not drawn) [Compound 7, Asperversin G] | – | – | – | – | – | 92.4% | 13.6 µM | > 40 µM | > 40 µM | > 40 µM | > 40 µM | > 40 µM | > 100 mg/L | > 100 mg/L | > 100 mg/L | > 100 mg/L
Cc1cc2c(c(=O)o1)C[C@@H]1[C@@]3(C)[C@@H](O)CC(=O)OC(C)(C)[C@@H]3CC[C@@]1(C)O2 [Compound 4, Asperversin D] | – | – | – | – | – | 50.2% | > 40 µM | > 40 µM | > 40 µM | > 40 µM | > 40 µM | > 40 µM | > 100 mg/L | > 100 mg/L | > 100 mg/L | > 100 mg/L
CC(=O)O[C@@H]1C[C@@]2(C)Oc3cc(C)oc(=O)c3C[C@@H]2[C@@]2(C)[C@H](CC(=O)O)OC(C)(C)[C@H]12 [Compound 2, Asperversin B] | – | – | – | – | – | 36.2% | > 40 µM | > 40 µM | > 40 µM | > 40 µM | > 40 µM | > 40 µM | > 100 mg/L | > 100 mg/L | > 100 mg/L | > 100 mg/L
CC(=O)O[C@H]1CC(=O)OC(C)(C)[C@@H]2[C@H](OC(C)=O)C[C@@]3(C)Oc4cc(C)oc(=O)c4C[C@@H]3[C@@]12C [Compound 6, Asperversin F] | – | – | – | – | – | 62.9% | > 40 µM | > 40 µM | > 40 µM | > 40 µM | > 40 µM | > 40 µM | > 100 mg/L | > 100 mg/L | > 100 mg/L | > 100 mg/L
C=C(C)[C@@H]1[C@H](OC(C)=O)C[C@@]2(C)Oc3cc(C)oc(=O)c3C[C@@H]2[C@@]1(C)[C@H](CC(=O)OC)OC(C)=O [Compound 3, Asperversin C] | – | – | – | – | – | 27.6% | > 40 µM | > 40 µM | > 40 µM | > 40 µM | > 40 µM | > 40 µM | > 100 mg/L | > 100 mg/L | > 100 mg/L | > 100 mg/L
